Assay results from US20190031624A1, “THERAPEUTIC COMPOUNDS AND METHODS TO TREAT INFECTION” (priority 2017, published 2019).
In brackets after ≈: the same amount, converted by molar mass. Structures can show the parent of a compound that is named as a salt. Where two headings read alike, the source gives them in different places.

How the values were obtained:
P. aeruginosa PAO1 [1] = test: Intrinsic MIC assay (CLSI broth microdilution); type: cell-based, Pseudomonas aeruginosa; settings: for MIC: Pseudomonas aeruginosa, read-out: Antibiotic Activity Against P. aeruginosa: Intrinsic MIC
Description: (§1) MIC assays were conducted in accordance with Clinical and Laboratory Standards Institute (CLSI) guidelines for broth microdilution. A 96-well plate containing cation-adjusted Mueller-Hinton (CAMH broth with 2-fold serial dilution of compounds was inoculated with log-phase bacterial at 5×10^5 CFU/mL. The final volume in each well was 100 μL. Each compound was tested in duplicate. The microtiter plates were incubated in an aerobic environment for 18 hours at 37° C. Then the bacterial growth was tested by reading the plate with a VersaMax plate reader (Molecular Devices, Inc.) at 600 nm. The MIC was defined as the lowest compound concentration that inhibited 90% of bacteria growth.
(§2) Pseudomonas aeruginosa PAO1

P. aeruginosa PAO1 [2] = test: MIC assay in the presence of a bacterial efflux pump inhibitor (EPI); type: cell-based, Pseudomonas aeruginosa; settings: with 12.5 ug/ml of EPI (2S,4R)-4-(ammoniomethyl)-2-((6-(4-fluorophenyl)-1H-indole-2-carboxamido)methyl)pyrrolidin-1-ium, MIC90
Description: (§3) The ability of a compound to produce an antibiotic effect can be determined using a method as described in Example 21. Data for representative compounds used in combination with the efflux pump inhibitor [(2S,4R)-4-(ammoniomethyl)-2-((6-(4-fluorophenyl)-1H-indole-2-carboxamido)methyl)pyrrolidin-1-ium] is shown in Table 1.
as §1, §2
(§4) The EPI assay for the purposes of these studies represents a MIC assay in which the MIC of the antibiotic against the bacteria is tested in the presence of an experimental efflux pump inhibitor (EPI). The highest concentration of the EPI present in the assay typically is ½ of the intrinsic MIC of the compound. If the intrinsic MIC of the EPI is greater than 100 μg/mL, the EPI assay was tested with 50 μg/mL. Using serial dilutions of the EPI, its enhancement of antibiotic activity was then evaluated. The relative EPI activity was decided by comparing the MIC of the antibiotic in the presence of the EPI compound with the intrinsic MIC of the antibiotic alone. For comparative purposes, we generally used EPIs at concentration of 12.5 and 6.25 μg/ml against varying concentration of our test antibiotic.

E. coli 25922 [3] = test: Intrinsic MIC assay (CLSI broth microdilution); type: cell-based, Escherichia coli; settings: for MIC: read-out: Antibiotic Activity Against E. coli: Intrinsic MIC
Description: as §1
(§5) Escherichia coli ATCC 25922

E. coli 25922 [4] = test: MIC assay in the presence of a bacterial efflux pump inhibitor (EPI); type: cell-based, Escherichia coli; settings: with 12.5 ug/ml of EPI (2S,4R)-4-(ammoniomethyl)-2-((6-(4-fluorophenyl)-1H-indole-2-carboxamido)methyl)pyrrolidin-1-ium, MIC90
Description: as §3, §1, §5, §4

MreB = settings: P. aeruginosa strains with defective efflux transporters; cited from earlier work
[5] = molecular target: T1, MexAB-OprM efflux transporter (Pseudomonas aeruginosa, UniProt P52002); settings: wild-type P. aeruginosa; cited from earlier work
T1 construct: MexAB-OprM efflux transporter present in wild-type P. aeruginosa; endogenous in cells; host or cells: wild-type P. aeruginosa
T1 sequence (Q51487 18-485): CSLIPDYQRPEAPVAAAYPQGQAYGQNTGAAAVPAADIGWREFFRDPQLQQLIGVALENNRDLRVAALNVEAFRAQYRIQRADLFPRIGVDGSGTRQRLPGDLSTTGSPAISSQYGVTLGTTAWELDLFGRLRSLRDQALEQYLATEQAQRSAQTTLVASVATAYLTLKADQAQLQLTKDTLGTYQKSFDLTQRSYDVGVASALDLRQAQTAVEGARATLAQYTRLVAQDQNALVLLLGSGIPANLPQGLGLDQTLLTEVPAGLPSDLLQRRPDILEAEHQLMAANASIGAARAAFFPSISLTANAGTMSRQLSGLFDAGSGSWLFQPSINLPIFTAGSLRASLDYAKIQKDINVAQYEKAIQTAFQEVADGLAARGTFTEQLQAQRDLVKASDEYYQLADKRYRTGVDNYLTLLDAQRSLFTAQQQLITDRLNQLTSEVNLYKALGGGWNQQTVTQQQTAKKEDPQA
T1 sequence (P52477 24-383, further chain): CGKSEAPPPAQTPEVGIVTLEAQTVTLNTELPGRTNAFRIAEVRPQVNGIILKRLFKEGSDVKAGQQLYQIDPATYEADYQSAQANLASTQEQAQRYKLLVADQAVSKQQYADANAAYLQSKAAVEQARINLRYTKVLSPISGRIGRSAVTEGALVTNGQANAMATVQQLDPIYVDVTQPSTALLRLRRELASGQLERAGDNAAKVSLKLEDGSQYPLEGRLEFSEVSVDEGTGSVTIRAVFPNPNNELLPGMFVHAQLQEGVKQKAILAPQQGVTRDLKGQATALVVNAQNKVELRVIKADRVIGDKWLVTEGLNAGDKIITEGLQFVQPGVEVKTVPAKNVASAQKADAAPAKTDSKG
T1 sequence (P52002 whole entry): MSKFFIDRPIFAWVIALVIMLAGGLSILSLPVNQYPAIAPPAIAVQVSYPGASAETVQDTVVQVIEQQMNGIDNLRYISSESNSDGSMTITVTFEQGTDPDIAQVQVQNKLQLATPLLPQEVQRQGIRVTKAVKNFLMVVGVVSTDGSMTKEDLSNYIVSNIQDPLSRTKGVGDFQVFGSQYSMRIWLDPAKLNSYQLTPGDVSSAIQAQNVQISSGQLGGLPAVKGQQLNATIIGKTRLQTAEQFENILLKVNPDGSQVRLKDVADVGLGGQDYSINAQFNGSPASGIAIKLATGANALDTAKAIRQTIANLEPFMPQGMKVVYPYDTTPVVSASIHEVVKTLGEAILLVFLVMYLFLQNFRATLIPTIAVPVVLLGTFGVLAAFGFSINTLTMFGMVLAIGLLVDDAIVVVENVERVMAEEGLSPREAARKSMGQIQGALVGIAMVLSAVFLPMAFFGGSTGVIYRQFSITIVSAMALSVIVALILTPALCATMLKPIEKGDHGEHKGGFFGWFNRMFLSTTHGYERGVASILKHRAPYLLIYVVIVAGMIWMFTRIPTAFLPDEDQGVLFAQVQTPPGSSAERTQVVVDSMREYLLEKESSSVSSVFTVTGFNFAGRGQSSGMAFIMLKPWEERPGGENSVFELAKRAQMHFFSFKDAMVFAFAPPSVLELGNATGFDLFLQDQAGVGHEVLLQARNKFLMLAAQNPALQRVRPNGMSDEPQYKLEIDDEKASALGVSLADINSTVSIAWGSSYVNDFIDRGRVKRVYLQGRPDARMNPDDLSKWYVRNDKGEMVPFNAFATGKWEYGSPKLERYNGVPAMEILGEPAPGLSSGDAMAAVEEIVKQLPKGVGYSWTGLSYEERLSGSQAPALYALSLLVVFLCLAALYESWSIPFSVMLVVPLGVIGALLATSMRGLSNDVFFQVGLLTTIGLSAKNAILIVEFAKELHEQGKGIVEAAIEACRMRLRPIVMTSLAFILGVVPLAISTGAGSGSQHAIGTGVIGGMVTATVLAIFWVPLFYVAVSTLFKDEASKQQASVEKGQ

[6] = 18 h, P. aeruginosa PAO1, without EPI, MIC90
[7] = Escherichia coli, 18 h, E. coli 25922, without EPI, MIC90

Row | Compound | MIC (P. aeruginosa PAO1 [1]; [6]) | Antibiotic Activity Against P. aeruginosa: MIC with EPI (Enhancement) (P. aeruginosa PAO1 [2]) | MIC (E. coli 25922 [3]; [7]) | Antibiotic Activity Against E. coli: MIC with EPI (Enhancement) (E. coli 25922 [4]) | MIC (P. aeruginosa PAO1 [1]; PAO1, 18 h) | MIC (E. coli 25922 [3]; Escherichia coli, 25922, 18 h) | MreB inhibition (MreB) | efflux transporter substrate [5] | Antibiotic Activity Against P. aeruginosa: Intrinsic MIC (P. aeruginosa PAO1 [1]; P. aeruginosa PAO1, without EPI, MIC90) | Antibiotic Activity Against E. coli: Intrinsic MIC (E. coli 25922 [3]; E. coli 25922, without EPI, MIC90)
1 | Br.CC(SC(=N)N)c1ccc(Cl)c(Cl)c1 (stereo not shown) [Example 5, 1-(3,4-Dichlorophenyl)ethyl Carbamimidothioate Hydrobromide] | > 256 mg/L | 4.0 mg/L | 256 mg/L | 256 mg/L |  |  |  |  |  | 
2 | Br.N=C(N)SCc1ccc(-c2ccc(F)cc2)cc1 [Example 9, (4′-fluoro-[1,1′-biphenyl]-4-yl)methyl Carbamimidothioate Hydrobromide] | > 256 mg/L | >256 mg/L | 64 mg/L | 64 mg/L |  |  |  |  |  | 
3 | Br.CC(C)(C)c1ccc(CSC(=N)N)cc1 [Example 3, 4-(t-Butyl)Benzyl Carbamimidothioate Hydrobromide] | > 256 mg/L | 256 mg/L | 256 mg/L | 256 mg/L |  |  |  |  |  | 
4 | N=C(N)SCc1ccc2sccc2c1 [Example 16, Benzo[b]thiophen-5-ylmethyl Carbamimidothioate Hydrobromide] | > 256 mg/L | 4 mg/L | > 256 mg/L | >256 mg/L |  |  |  |  |  | 
5 | N=C(N)SCc1ccc2occc2c1 [Example 15, benzofuran-5-ylmethyl Carbamimidothioate Hydrobromide] | 16 mg/L | 4 mg/L | > 256 mg/L | >256 mg/L |  |  |  |  |  | 
6 | N=C(N)SCc1ccc2ncccc2c1 [Example 18, quinolin-6-ylmethyl Carbamimidothioate Hydrobromide] | > 256 mg/L | >256 mg/L | > 256 mg/L | >256 mg/L |  |  |  |  |  | 
7 | Br.N=C(N)SCc1cccc2cccnc12 [Example 19, quinolin-8-ylmethyl Carbamimidothioate Hydrobromide] | > 256 mg/L | >256 mg/L | > 256 mg/L | >256 mg/L |  |  |  |  |  | 
8 | N=C(N)SCCc1ccc(Cl)c(Cl)c1 [Example 4, 3,4-dichlorophenethyl carbamimidothioate] | > 256 mg/L | >256 mg/L | 256 mg/L (≈ 1030 µM) | 256 mg/L |  |  |  |  |  | 
9 | N=C(N)SCc1ccc(C(F)(F)F)nc1 [Example 14, (6-(trifluoromethyl)pyridin-3-yl)methyl Carbamimidothioate Hydrochloride] |  | >256 mg/L |  | >256 mg/L | > 256 mg/L | > 256 mg/L |  |  |  | 
10 | N=C(N)SCc1ccc(Cl)c(Cl)c1 [Example A22, S-(3,4-Dichlorobenzyl)isothiourea] |  |  |  |  |  |  | effective MreB inhibitor | substrate for the MexAB-OprM efflux transporter |  | 
11 | Cl.N=C(N)SCc1ccc(Cl)c(Cl)c1 [Example 1, 3,4-Dichlorobenzyl Carbamimidothioate Hydrobromide] | > 256 mg/L | 0.5 mg/L | 64 mg/L | 4 mg/L |  |  |  |  |  | 
12 | N=C(N)SCc1cccc(Br)c1 [Example 8, 3-bromobenzyl Carbamimidothioate Hydrobromide] |  | >256 mg/L |  | >256 mg/L | > 256 mg/L | > 256 mg/L |  |  |  | 
13 | N=C(N)SCc1cccc2ccccc12 [Example 11, naphthalen-1-ylmethyl Carbamimidothioate Hydrobromide] | > 256 mg/L | >256 mg/L | > 256 mg/L | >256 mg/L |  |  |  |  |  | 
14 | CNC(=N)SCc1ccc(Cl)c(Cl)c1.Cl [Example 6, 3,4-dichlorobenzyl Methylcarbamimidothioate Hydrobromide] | > 256 mg/L | 4.0 mg/L | > 256 mg/L | >256 mg/L |  |  |  |  |  | 
15 | Isoquinolin-5-ylmethyl Carbamimidothioate Hydrobromide [Example 20] |  | >256 mg/L |  | >256 mg/L |  |  |  |  | >256 μ/mL | >256 mg/L
16 | Br.N=C(N)SCc1ccc(Cl)cc1Cl [Example 2, 2,4-Dichlorobenzyl Carbamimidothioate Hydrobromide] | > 256 mg/L | 1.0 mg/L | > 256 mg/L | >256 mg/L |  |  |  |  |  | 
17 | N=C(N)SCc1cccc(-c2ccc(F)cc2)c1 [Example 10, (4′-fluoro-[1,1′-biphenyl]-3-yl)methyl Carbamimidothioate Hydrobromide] | > 256 mg/L | >256 mg/L | 64 mg/L | 64 mg/L |  |  |  |  |  | 
18 | Br.N=C(N)SCc1ccc(Br)cc1 [Example 7, 4-Bromobenzyl Carbamimidothioate Hydrobromide] | > 256 mg/L | 1.0 mg/L | > 256 mg/L | >256 mg/L |  |  |  |  |  | 
19 | Cl.N=C(N)SCc1ccc2ccccc2c1 [Example 12, naphthalen-2-ylmethyl Carbamimidothioate Hydrobromide] | > 256 mg/L | 4 mg/L | > 256 mg/L | 16 mg/L |  |  |  |  |  | 
20 | CN1CN=C(SCc2ccc3ccccc3c2)NC1 [Example 13, 3-methyl-6-((naphthalen-2-ylmethyl)thio)-1,2,3,4-tetrahydro-1,3,5-triazine] | > 256 mg/L | 16 mg/L | > 256 mg/L | 16 mg/L |  |  |  |  |  | 
21 | CC(C)(C)OC(=O)n1ccc2cc(CSC(=N)N)ccc21 [Example 17, t-Butyl 5-((carbamimidoylthio)methyl)-1H-indole-1-carboxylate] | > 256 mg/L | >256 mg/L | > 128 mg/L | 128 mg/L |  |  |  |  |  | 
